The values below come from patent publication US8785488B2 (Exelixis Patent Company LLC, priority 2009, dated 2014).

A value given as a limit tells only on which side of the number the result lay.

In experiment [1] the target is T1, human TGR5 (h-TGR5) (Homo sapiens, UniProt Q8TDU6).
T1 construct: expressed in transfected cells
T1 sequence (Q8TDU6 1-330): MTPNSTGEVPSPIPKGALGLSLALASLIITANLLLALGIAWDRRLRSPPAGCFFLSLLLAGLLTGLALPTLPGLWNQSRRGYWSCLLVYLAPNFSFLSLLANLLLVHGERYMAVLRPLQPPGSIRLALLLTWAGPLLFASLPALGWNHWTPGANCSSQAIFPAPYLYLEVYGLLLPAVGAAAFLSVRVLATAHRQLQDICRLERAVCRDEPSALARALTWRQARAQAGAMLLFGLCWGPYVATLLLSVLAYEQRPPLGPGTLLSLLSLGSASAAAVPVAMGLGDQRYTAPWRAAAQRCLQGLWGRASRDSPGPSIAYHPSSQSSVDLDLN
The experiment in a line: TGR5/CRE-Luciferiase Assay (HEK 293 hTGR5/CRE-Luc cells). The experiment is classed as cell-based. To be noted: h-TGR5 CRE-Luc EC50, Table 1; read-out: CRE-Luc (EC50). The procedure, abridged: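 HEK293 cells stably carrying hTGR5 and a CRE-luciferase reporter were exposed to serially diluted compounds (diluted in DMEM with 5% DMSO) for 6 h. Cells were then lysed in luciferase buffer, luminescence was read, and EC50 values were derived from dose-response curves.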

Experiment [2] deals with T2, h-TGR5 (Homo sapiens, UniProt Q8TDU6).
T2 construct: expressed in transfected cells
T2 sequence (Q8TDU6 1-330): T1 sequence (Q8TDU6 1-330)
In words: TGR5 cAMP Assay using Cisbio cAMP Dynamic2 htrf kit (hTGR5CRE-luc HEK 293 cells). Type of experiment: cell-based. To be noted: h-TGR5 cAMP EC50, Table 1; read-out: cAMP (EC50). The procedure, abridged: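 […], 4000 hTGR5CRE-luc HEK 293 cells per well, with 0.5 mM IBMX and d2-cAMP, were incubated 30 min at room temperature with compounds in 8-point half-log series, in quadruplicate.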

Broadly, the EC50 is the midpoint of the concentration-response curve. Take `COc1ccc(C(C)(C)c2cnc(SCc3ccc(C(N)=O)cc3F)n2-c2ccc(F)cc2)cc1OC` [4-({[5-{1-[3,4-bis(methyloxy)phenyl]-1-methylethyl}-1-(4-fluorophenyl)-1H-imidazol-2-yl]thio}methyl)-3-fluorobenzamide]: the EC50 in experiment [1] was 100 to 1000 nM; in experiment [2], below 100 nM.

Take `COc1cc(C(C)(C)c2cnc(SCC3CCN(S(C)(=O)=O)CC3)n2-c2ccc(F)cc2)ccc1Cl` [4-({[5-{1-[4-chloro-3-(methyloxy)phenyl]-1-methylethyl}-1-(4-fluorophenyl)-1H-imidazol-2-yl]thio}methyl)-1-(methylsulfonyl)piperidine]: the EC50 in experiment [1] and in experiment [2] was below 100 nM each time.

As for `CC(C)(c1ccc(Cl)c(OCCCN2CCOCC2)c1)c1cnc(SCc2c(F)cc(C(=O)O)cc2Cl)n1-c1ccc(F)cc1` [3-chloro-4-({[5-(1-{4-chloro-3-[(3-morpholin-4-ylpropyl)oxy]phenyl}-1-methylethyl)-1-(4-fluorophenyl)-1H-imidazol-2-yl]thio}methyl)-5-fluorobenzoic acid], the EC50 in experiment [1] and in experiment [2] was 100 to 1000 nM each time.

Regarding `COc1cc(C(C)(C)c2cnc(SCc3c(F)cc(OCCNC(=N)N)cc3Cl)n2-c2ccc(F)cc2)ccc1Cl` [1-(2-{[3-chloro-4-({[5-{1-[4-chloro-3-(methyloxy)phenyl]-1-methylethyl}-1-(4-fluorophenyl)-1H-imidazol-2-yl]thio}methyl)-5-fluorophenyl]oxy}ethyl)guanidine], the EC50 in experiment [1] and in experiment [2] was below 100 nM in each case.

On to `COc1cc(C(C)(C)c2cnc(SCc3c(F)cc(C(=O)NCCCC(N)C(=O)O)cc3Cl)n2-c2ccc(F)cc2)ccc1Cl` [N-5-{[3-chloro-4-({[5-{1-[4-chloro-3-(methyloxy)phenyl]-1-methylethyl}-1-(4-fluorophenyl)-1H-imidazol-2-yl]thio}methyl)-5-fluorophenyl]carbonyl}-L-ornithine], for which the EC50 in experiment [1] and in experiment [2] was below 100 nM each time.

In the case of `CC(C)(c1ccc(Cl)c(Cl)c1)c1cnc(SCc2ccc(F)cc2Cl)n1-c1cccnc1` [3-(2-{[(2-chloro-4-fluorophenyl)methyl]thio}-5-[1-(3,4-dichlorophenyl)-1-methylethyl]-1H-imidazol-1-yl)pyridine], the EC50 in experiment [1] lay within 100 to 1000 nM; in experiment [2] it was 1000 to 10000 nM.

On to `CC(C)(c1ccc(F)c(Cl)c1)c1cnc(SCc2ccc(S(=O)(=O)NC(=O)NN3CCCC3)cc2Cl)n1-c1ccc(F)cc1` [3-chloro-4-[({5-[1-(3-chloro-4-fluorophenyl)-1-methylethyl]-1-(4-fluorophenyl)-1H-imidazol-2-yl}thio)methyl]-N-[(pyrrolidin-1-ylamino)carbonyl]benzenesulfonamide], for which the EC50 in experiment [1] and in experiment [2] was 100 to 1000 nM each time.

For the molecule `COc1cc(C(C)(C)c2cnc(SCc3c(F)cc(C(=O)N[C@@H](CCCN)C(=O)O)cc3Cl)n2-c2ccc(F)cc2)ccc1Cl` [N-2-{[3-chloro-4-({[5-{1-[4-chloro-3-(methyloxy)phenyl]-1-methylethyl}-1-(4-fluorophenyl)-1H-imidazol-2-yl]thio}methyl)-5-fluorophenyl]carbonyl}-L-ornithine], the EC50 in experiment [1] and in experiment [2] was below 100 nM each time.

For `COc1cc(-n2c(C(C)(C)c3ccc(S(N)(=O)=O)c(Cl)c3)cnc2SCc2c(F)cc(C(=O)NC(CCCNC(=N)N)C(=O)O)cc2Cl)ccc1F` [N-2-[(4-{[(5-{1-[4-(aminosulfonyl)-3-chlorophenyl]-1-methylethyl}-1-[4-fluoro-3-(methyloxy)phenyl]-1H-imidazol-2-yl)thio]methyl}-3-chloro-5-fluorophenyl)carbonyl]-D-arginine], the EC50 in experiment [1] and in experiment [2] was below 100 nM in each case.

On to `COc1cc(C(C)(C)c2cnc(SCc3c(F)cccc3Cl)n2-c2ccc(F)cc2)ccc1Cl` [2-{[(2-chloro-6-fluorophenyl)methyl]thio}-5-{1-[4-chloro-3-(methyloxy)phenyl]-1-methylethyl}-1-(4-fluorophenyl)-1H-imidazole], for which the EC50 in experiment [1] and in experiment [2] was below 100 nM throughout.

As to `COc1cc(-n2c(C(C)(C)c3ccc(Cl)c(Cl)c3)cnc2SCc2ccc(S(=O)(=O)NC(=O)NN3CCCC3)cc2Cl)ccc1F` [3-chloro-4-[({5-[1-(3,4-dichlorophenyl)-1-methylethyl]-1-[4-fluoro-3-(methyloxy)phenyl]-1H-imidazol-2-yl}thio)methyl]-N-[(pyrrolidin-1-ylamino)carbonyl]benzenesulfonamide], the values for the EC50 in experiment [1] and in experiment [2] were 100 to 1000 nM and 1000 to 10000 nM, respectively.

With `CCOC(=O)NS(=O)(=O)c1ccc(CSc2ncc(C(C)(C)c3ccc(Cl)c(Cl)c3)n2-c2ccc(F)c(OC)c2)c(Cl)c1` [ethyl ({3-chloro-4-[({5-[1-(3,4-dichlorophenyl)-1-methylethyl]-1-[4-fluoro-3-(methyloxy)phenyl]-1H-imidazol-2-yl}thio)methyl]phenyl}sulfonyl)carbamate], the EC50 in experiment [1] and in experiment [2] was 100 to 1000 nM each time.

Turning to `COc1cc(-n2c(C(C)(C)c3ccc(S(C)(=O)=O)cc3)cnc2SCc2ccc(S(=O)(=O)NC(=O)NN3CCCC3)cc2Cl)ccc1F` [3-chloro-4-{[(1-[4-fluoro-3-(methyloxy)phenyl]-5-{1-methyl-1-[4-(methylsulfonyl)phenyl]ethyl}-1H-imidazol-2-yl)thio]methyl}-N-[(pyrrolidin-1-ylamino)carbonyl]benzenesulfonamide], the concentration for a half-maximal effect (EC50) in experiment [1] is 100 to 1000 nM; in experiment [2], 1000 to 10000 nM.

For `CC(C)(c1ccc(Cl)c(Cl)c1)c1cnc(SCc2ccc(F)c(OCC(=O)O)c2)n1-c1ccc(F)cc1` [({5-[({5-[1-(3,4-dichlorophenyl)-1-methylethyl]-1-(4-fluorophenyl)-1H-imidazol-2-yl}thio)methyl]-2-fluorophenyl}oxy)acetic acid], the EC50 in experiment [1] and in experiment [2] was 100 to 1000 nM in each case.

Regarding `CC(C)(c1ccc(Cl)c(Cl)c1)c1cnc(SCc2ccc(S(=O)(=O)NC(=O)NN3CCCC3)cc2Cl)n1-c1ncc(F)cc1F` [3-chloro-4-[({5-[1-(3,4-dichlorophenyl)-1-methylethyl]-1-(3,5-difluoropyridin-2-yl)-1H-imidazol-2-yl}thio)methyl]-N-[(pyrrolidin-1-ylamino)carbonyl]benzenesulfonamide], the figures for the EC50 in experiment [1] and in experiment [2] were 100 to 1000 nM and 1000 to 10000 nM, respectively.

In the case of `COc1cc(-n2c(C(C)(C)c3ccc(S(N)(=O)=O)c(Cl)c3)cnc2SCc2c(F)cc(C(=O)O)cc2F)ccc1F` [4-{[(5-{1-[4-(aminosulfonyl)-3-chlorophenyl]-1-methylethyl}-1-[4-fluoro-3-(methyloxy)phenyl]-1H-imidazol-2-yl)thio]methyl}-3,5-difluorobenzoic acid], the EC50 in experiment [1] and in experiment [2] was below 100 nM in each case.

For the molecule `COc1cc(C(C)(C)c2cnc(SCc3c(F)cc(C(=O)O)cc3F)n2-c2ccc(F)cc2)ccc1Cl` [4-({[5-{l-[4-chloro-3-(methyloxy)phenyl]-1-methylethyl}-1-(4-fluorophenyl)-1H-imidazol-2-yl]thio}methyl)-3,5-difluorobenzoic acid], the EC50 in experiment [1] and in experiment [2] was below 100 nM each time.

Regarding `CC(C)(c1ccc(Cl)c(Cl)c1)c1cnc(SCC2CCN(S(C)(=O)=O)CC2)n1-c1ccc(F)c(Cl)c1` [4-[({1-(3-chloro-4-fluorophenyl)-5-[1-(3,4-dichlorophenyl)-1-methylethyl]-1H-imidazol-2-yl}thio)methyl]-1-(methylsulfonyl)piperidine], the EC50 in experiment [1] is below 100 nM; in experiment [2], 100 to 1000 nM.

As to `COc1cc(C(C)(C)c2cnc(SCc3c(F)cc(C(=O)N[C@H](CCCNC(=N)N)C(=O)O)cc3Cl)n2-c2ccc(F)cc2)ccc1Cl` [N-2-{[3-chloro-4-({[5-{1-[4-chloro-3-(methyloxy)phenyl]-1-methylethyl}-1-(4-fluorophenyl)-1H-imidazol-2-yl]thio}methyl)-5-fluorophenyl]carbonyl}-D-arginine], the EC50 in experiment [1] and in experiment [2] was below 100 nM in each case.

As for “N-2-({[3-chloro-4-({[5-{1-[4-chloro-3- (methyloxy)phenyl]-1-methylethyl}-1-(4- fluorophenyl)-1H-imidazol-2-yl]thio}methyl)- 5-fluorophenyl]amino}carbonyl)-L-arginine”, the EC50 in experiment [1] and in experiment [2] was below 100 nM each time.

Regarding `COc1cc(-n2c(C(C)(C)c3ccc(Cl)c(Cl)c3)cnc2SCc2c(F)cc(C(=O)NCS(=O)(=O)O)cc2F)ccc1F` [[({4-[({5-[1-(3,4-dichlorophenyl)-1-methylethyl]-1-[4-fluoro-3-(methyloxy)phenyl]-1H-imidazol-2-yl}thio)methyl]-3,5-difIuorophenyl}carbonyl)amino]methanesulfonic acid], the EC50 in experiment [1] and in experiment [2] was below 100 nM in each case.

With `COc1cc(-n2c(C(C)(C)c3ccc(S(N)(=O)=O)c(Cl)c3)cnc2SCc2c(F)cc(C(=O)NCCC(=O)O)cc2F)ccc1F` [N-[(4-{[(5-{1-[4-(aminosulfonyl)-3-chlorophenyl]-1-methylethyl}-1-[4-fluoro-3-(methyloxy)phenyl]-1H-imidazol-2-yl)thio]methyl}-3,5-difluorophenyl)carbonyl]-beta-alanine], the EC50 in experiment [1] and in experiment [2] was below 100 nM in each case.
